“And” between values parts separate entries of the source, which are not always exact repeats. Identical values can stand only once.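 Compound exposure: 48 hours, 5 concentrations, 96-well plates. GI50 = concentration required for 50% inhibition of growth. TGI denotes the concentration required for complete inhibition of growth.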
Tests used:
Assay in all cases: growth of human tumour cells (NCI), 48 h
A498 renal = tested on: A498 renal
DU-145 prostate = tested on: DU-145 prostate
HCC-2998 colon = tested on: HCC-2998 colon
HCT-116 colon = tested on: HCT-116 colon
HS 578T breast = tested on: HS 578T breast
MOLT-4 leukemia = tested on: MOLT-4 leukemia
NCI-H23 lung = tested on: NCI-H23 lung
SF-268 CNS = tested on: SF-268 CNS
UACC-257 melanoma = tested on: UACC-257 melanoma
A549 NSCLC = tested on: A549 NSCLC

| SMILES | GI50 (A498 renal) [µM] | TGI (A498 renal) | TGI (DU-145 prostate) [µM] | GI50 (HCC-2998 colon) [µM] | TGI (HCC-2998 colon) | GI50 (HCT-116 colon) [µM] | TGI (HCT-116 colon) | TGI (HS 578T breast) [µM] | GI50 (MOLT-4 leukemia) [µM] | GI50 (NCI-H23 lung) [µM] | TGI (NCI-H23 lung) | GI50 (SF-268 CNS) [µM] | TGI (SF-268 CNS) | TGI (UACC-257 melanoma) [µM] | GI50 (A549 NSCLC) [µM] | TGI (A549 NSCLC) [µM] | GI50 (DU-145 prostate) [µM] | GI50 (HS 578T breast) [µM] | TGI (MOLT-4 leukemia) [µM] | GI50 (UACC-257 melanoma) [µM] |
| --- | --- | --- | --- | --- | --- | --- | --- | --- | --- | --- | --- | --- | --- | --- | --- | --- | --- | --- | --- | --- |
| Cc1cc(-c2c(F)cc3c4nn([C@H]5CC[C@@H](N(C)C)CC5)c(=O)c-4cn(C4CC4)c3c2F)cc(C)n1 | 0.141 | 0.0558 µM and 0.471 µM | 8.71 | 0.0369 | 0.108 µM and 1.01 µM | 0.0391 | 0.356 µM and 1.27 µM | 6.25 | 0.002 | 0.0207 | 0.079 µM and 0.554 µM | 0.0285 | 0.151 µM and 0.89 µM | 5.77 |  |  |  |  |  |  |
| Cc1c(C#N)cccc1[C@@H](C)Nc1nnc(C)c2cnc(N3CCOCC3)cc12 | 2.72 | > 100 µM | > 100 | 53.9 | > 100 µM | 32.7 | > 100 µM | 66.6 | 28.3 | 15.3 | > 100 µM | 14.1 | > 100 µM | 94.5 | 36.2 | > 100 | 27.7 | 12.2 | 90.6 | 26.4 |
| COc1cc(OC)cc(C2C3=C(COC3=O)Nc3cc(OC)ccc32)c1 (stereo not given) | < 0.01 | < 0.0106 µM | 0.0486 | < 0.01 |  | < 0.01 | 0.413 µM | > 64.3 | < 0.01 | < 0.01 | > 43.7 µM | < 0.0106 | > 61.8 µM | > 100 | < 0.01 | 27.7 | < 0.01 | < 0.01 |  | > 36.9 |
| CCCc1cc(=O)n2c(C(=O)Nc3ccc(F)cc3)c(C(=O)Nc3ccc(F)cc3)sc2n1 | 46.4 | 137 µM | > 160 | > 160 | > 160 µM | 18.3 | > 160 µM | 11.1 | > 160 | > 160 | > 160 µM | 18.8 | 95.6 µM | 62.8 | 17.5 | 40 | 124 | 2.58 | > 160 | 20.8 |
| CC(C)OC(=S)Nc1ccc(Cl)c(/C=N/OC(C)(C)C)c1 |  | 28.2 µM | 17.6 |  | 41.4 µM |  | 29.9 µM | 38.6 |  |  | 39.4 µM |  | 40.4 µM | 37.4 |  | 40 |  |  | 30.8 |  |
| COc1cc(/C=C/c2ccc(O)c(OC)c2)cc(OC)c1 |  | 84.4 µM | 61.5 |  | > 100 µM |  | > 100 µM | 59.1 |  |  | > 100 µM |  | > 100 µM | 80.6 |  | > 100 |  |  | > 100 |  |
| C=C1C(O)C2CC(C)(CO)C(=O)C2=C(CC(C)C)C12CC2 (stereo not given) | > 100 | > 100 µM | > 100 | > 100 | > 100 µM | 38.7 | > 100 µM | > 100 | 81.8 | > 100 | > 100 µM | > 100 | > 100 µM | > 100 | 59.8 | > 100 | 86.4 | > 100 | > 100 | 52.1 |
| O=C(NCC(F)(F)F)Nc1cccc(-c2cnc3cc(-c4ccc(F)cc4)ccn23)c1 | 0.29 | 2.47 µM | > 100 | 1.95 | 49.4 µM | 0.539 | 14.7 µM | > 100 | 0.681 | 1.65 | 20.8 µM | 2.8 | > 100 µM | 65.5 | 0.947 | > 100 | 3.91 | 0.733 | > 29 | 14.2 |
| CS(=O)(=O)c1ccc(Nc2nc(N[C@H]3CCCC[C@H]3N)nc3cc[nH]c(=O)c23)cc1 | 3.31 | 12.4 µM | 10.4 | 1.52 | 4.49 µM | 0.615 | 16.8 µM | 4.95 | 2.95 | 1.58 | 6.01 µM | 1.33 | 4.26 µM | 15.9 | 3.87 | > 100 | 2.03 | 1.25 | 17.5 | 2.78 |
| N#CC1=C(N)Oc2c(ccc3ccccc23)C1c1cc(=O)oc2ccc(Cl)cc12 (stereo not given) | 0.805 | 42.2 µM | > 100 | 2.72 | 19.5 µM | 0.406 | 23.8 µM | 47.2 | 0.887 | 4.96 | > 100 µM | 2.02 | > 100 µM | 91.7 | 1.38 | > 100 | 4.11 | 0.656 | 87.8 | 14.4 |
| CNCCCNc1nc2ccccc2c2c(=O)c3cc(OC)ccc3sc12 | 2.25 | 8.72 µM | 3.23 | 1.82 | 3.49 µM | 1.78 | 3.52 µM | 4.77 | 2.06 | 1.7 | 3.19 µM | 1.71 | 3.42 µM | 4.15 | 1.84 | 3.82 | 1.78 | 1.94 | 4.41 | 1.99 |
| CCCCCCSSC(=S)N(CC)CC | 70 | > 100 µM | 92.9 | 29.7 | 91.5 µM | 14.4 | 28.5 µM | > 100 | 17.7 | 27.8 | 92.8 µM | 33.5 | > 100 µM | > 100 | 32.4 | 98.6 | 28.7 | 28.3 | 44.5 | 48.3 |
| CC(=O)N1CCN(CCNC(=O)n2cc(-c3ccncc3)c(-c3cc(O)cc(Cl)c3)n2)CC1 | 11.7 | 28.3 µM | > 100 | 17.2 | 32.2 µM | 5.47 | 18.8 µM | 53.4 | 10.4 | 17.1 | 46 µM | 14.6 | 35.2 µM | 4.61 | 15.1 | 38.7 | 24.3 | 16.7 | 49.2 | 1.85 |
| NC(=O)c1ccc(Oc2nccc(-c3c(-c4ccc(F)cc4)ncn3C3CCNCC3)n2)cc1 | > 18.2 | > 25 µM | > 25 | > 25 | > 25 µM | > 25 | > 25 µM | > 25 | > 25 | > 25 | > 25 µM | > 25 | > 25 µM | > 25 | > 25 | > 25 | > 25 | > 9.72 | > 25 | > 25 |
| COc1cc(C2C3=C(COC3=O)N(CCO)c3cc4c(cc32)OCCO4)cc(OC)c1OC (stereo not given) | 0.14 | 0.441 µM | 0.943 | 0.127 | 0.335 µM | 0.178 |  | 35.5 | 0.242 | 0.203 |  | 0.374 | > 50 µM | > 50 | 0.487 | > 50 | 0.345 | 0.164 | > 11.4 | 0.384 |
| CCCOC(=O)c1c(C)n(C)c2scc[n+]12 | 24 | 71.9 µM | > 100 | 55.9 | > 100 µM | 35.8 | > 100 µM | 74 | 53.9 | 34.2 | > 100 µM | 48 | > 100 µM | > 100 |  |  | 86.1 | 19.8 | > 100 | 40.8 |
| COc1ccc(/C=C/c2c(C(=O)/C=C/c3ccc(C(F)(F)F)cc3)c(C)nc3ccccc23)cc1 | 1.77 | 3.24 µM | 3.71 | 1.51 | 3.07 µM | 0.414 | 1.97 µM | 8.29 | 1.04 |  |  | 1.8 | 3.67 µM | 4.52 | 2.71 | 8.57 | 1.76 | 2.87 | > 100 | 2.09 |
| CN(C)CCCn1c(=O)c2ccccc2c2cnc3[nH]ccc3c21 | 1.03 | 2.37 µM | 8.97 | 2.03 | 7.72 µM | 0.486 | 10.3 µM | 11.2 | 0.838 | 1.76 | 6.62 µM | 1.44 | 5.02 µM | 5.59 |  |  | 2.14 | 2.53 | 11 | 2.26 |
| O=C(NNc1ccc(Cl)cc1)C1CCC(CNS(=O)(=O)c2ccccc2Cl)CC1 (stereo not given) | 31.3 | 74.9 µM | > 100 | 1.48 | 13.8 µM |  |  | > 100 | 74.4 | 15 | 50.6 µM | 8.31 | > 100 µM | 59.7 | 8.99 | > 100 | 31.6 | 65.2 | > 100 | 17.1 |
| O=C(Nc1ccccc1I(=O)=O)C1CCCCC1 | > 100 | > 100 µM | > 100 | > 100 | > 100 µM |  |  | > 100 | 98.5 | > 100 | > 100 µM | > 100 | > 100 µM | > 100 | > 100 | > 100 | > 100 | > 100 | > 100 | > 100 |
